Values quoted from earlier work, collected in patent publication US20220259243A1, “IRON(III) AND GALLIUM(III) METAL ORGANIC POLYHEDRA, METHODS OF MAKING SAME, AND USES THEREOF” (The Research Foundation for The State University of New York, priority 2019, published 2022).

Settings: 37° C., 4.7 Tesla, neutral pH

Question: With `CNC[C@H](O)[C@@H](O)[C@H](O)[C@H](O)CO.CNC[C@H](O)[C@@H](O)[C@H](O)[C@H](O)CO.O=C([O-])CN(CCN(CC(=O)[O-])CC(=O)O)CCN(CC(=O)[O-])CC(=O)O.[Gd+3]` [Magnevist] as the compound, how does the r1 relaxivity read?
Answer: 3 mM⁻¹ s⁻¹
